Measured values taken from patent US8389505B2, “Adamantane derivatives of AZA-crown ethers and their use in treatment of tumor” (Rudjer Boskovic Institute, priority 2009, dated 2013).

Assays:
Format in all cases: cell-based
H 460 (lung carcinoma) = experiment: MTT proliferation assay, H 460 cells; details: Homo sapiens, NCI-H460, 72 hours incubation, read-out: IC50 (concentration that causes 50% growth inhibition), H 460
Experimental: (§1) The described assay was used to test the effects of compounds on the proliferation of various human tumor cell lines, whereby cytostatic and cytotoxic effects on cells can be differentiated. The experiments were carried out on human cell lines, which were derived from 6 tumor types. The following cell lines were used: MCF-7 (breast carcinoma), SW 620 (colon carcinoma), HCT 116 (colon carcinoma), MOLT-4 (acute lymphoblastic leukemia), H 460 (lung carcinoma), HeLa (cervical carcinoma), MiaPaCa-2 (pancreatic carcinoma).
(§2) MCF-7, SW 620, HCT 116, HeLa, MiaPaCa-2 and H 460 cell lines were cultured as monolayers and maintained in Dulbecco's modified Eagle medium (DMEM), while MOLT-4 cells were cultured in suspension in nutritive medium RPMI 1640, both supplemented with 10% fetal bovine serum (FBS), 2 mM L-glutamine, 100 U/ml penicillin and 100 μg/ml streptomycin in a humidified atmosphere with 5% CO2 at 37° C.
(§3) The panel cell lines were inoculated onto a series of standard 96-well microtiter plates on day 0, at 1×10^4 to 3×10^4 cells/ml, depending on the doubling times of the specific cell line. Test agents were added next day to the cell lines in five consecutive 10-fold dilutions (10^−8 to 10^−4 M) and incubated for a further 72 hours. Working dilutions were freshly prepared on the day of testing. The solvent (DMSO) was also tested for eventual inhibitory activity by adjusting its concentration to be the same as in working concentrations. After 72 hours of incubation the cell growth rate was evaluated by performing the MTT assay (Mossman, Methods Immunol, 1983, 65, 55-63.), which detects dehydrogenase activity in viable cells. The MTT Cell Proliferation Assay is a colorimetric assay system, which measures the reduction of a tetrazolium component (MTT) into an insoluble formazan produced by mitochondria of viable cells. For this purpose the substance treated medium was discarded and MTT was added to each well in concentration of 20 μg/40 μl. After four hours of incubation the precipitates were dissolved in 160 μl of dimethylsulphoxide (DMSO). The absorbance (OD, optical density) was measured on a microplate reader at 570 nm. The absorbance is directly proportional to the cell viability. The percentage of growth (PG) of the cell lines was calculated according to one of the following two equations (according to the National Cancer Institute protocols, www.dtp.nci.nih.gov): If (mean ODtest−mean ODtzero)≧0 then PG=100×(mean ODtest−mean ODtzero)/(mean ODctrl−mean ODtzero). If (mean ODtest−mean ODtzero)<0 then: PG=100×(mean ODtest−mean ODtzero)/ODtzero.
(§4) Mean ODtzero=the average of optical density measurements before exposure of cells to the test compound.
(§5) Mean ODtest=the average of optical density measurements after the desired period of time.
(§6) Mean ODctrl=the average of optical density measurements after the desired period of time with no exposure of cells to the test compound.
(§7) Each test point was performed in quadruplicate in three individual experiments. The results were expressed as IC50, a concentration necessary for 50% of proliferation inhibition. Each result is a mean value from three separate experiments. The IC50 measures the growth inhibitory power of the test agent and represents the concentration that causes 50% growth inhibition. The IC50 is calculated from dose-response curves using linear regression analysis by fitting the test concentrations that give PG values above and below the respective reference value (e.g. 50% of inhibition for IC50). Therefore, a “real” value for any of the response parameters is obtained only if at least one of the tested drug concentrations falls above, and likewise at least one falls below the respective reference value. If however, for a given cell line or test agent all of the tested concentrations produce PGs exceeding the respective reference level of effect (e.g. PG value of 50%), then the highest tested concentration is assigned as the default value. […]

SW 620 (colon carcinoma) = experiment: MTT proliferation assay, SW 620 cells; details: Homo sapiens, 72 hours incubation, read-out: IC50 (concentration that causes 50% growth inhibition), SW 620
Experimental: as §1, §2, §3, §4, §5, §6, §7

MCF-7 (breast carcinoma) = experiment: MTT proliferation assay, MCF-7 cells; details: Homo sapiens, MCF7, 72 hours incubation, read-out: IC50 (concentration that causes 50% growth inhibition), MCF-7
Experimental: as §1, §2, §3, §4, §5, §6, §7

[1] = system: MiaPaCa-2 (pancreatic carcinoma); experiment: MTT proliferation assay, MiaPaCa-2 cells; details: Homo sapiens, MIA PaCa-2, 72 hours incubation, read-out: IC50 (concentration that causes 50% growth inhibition), MiaPaCa-2
Experimental: as §1, §2, §3, §4, §5, §6, §7

[2] = system: HeLa (cervical carcinoma); experiment: MTT proliferation assay, HeLa cells; details: Homo sapiens, 72 hours incubation, read-out: IC50 (concentration that causes 50% growth inhibition), Hela
Experimental: as §1, §2, §3, §4, §5, §6, §7

[3] = system: HCT 116 (colon carcinoma); experiment: MTT proliferation assay, HCT 116 cells; details: Homo sapiens, 72 hours incubation, read-out: IC50 (concentration that causes 50% growth inhibition), HCT 116
Experimental: as §1, §2, §3, §4
(§8) Mean ODtest=the average of optical density measurements after the desired period of time. […]

[4] = system: MOLT-4 (acute lymphoblastic leukemia); experiment: MTT proliferation assay, MOLT-4 cells; details: Homo sapiens, 72 hours incubation, read-out: IC50 (concentration that causes 50% growth inhibition), MOLT-4
Experimental: as §1, §2, §3, §4, §8

[5] = system: various human tumor cell lines; experiment: MTT proliferation assay, panel of tumor cell lines; details: up to maximal tested concentration (c=100 μM) during 72 hours, all cell lines of Table 1
Experimental: as §1, with “carcinoma). […]” for “carcinoma).”
The panel cell lines were inoculated onto a series of standard 96-well microtiter plates on day 0, at 1×10^4 to 3×10^4 cells/ml, depending on the doubling times of the specific cell line. […] After 72 hours of incubation the cell growth rate was evaluated by performing the MTT assay (Mossman, Methods Immunol, 1983, 65, 55-63.), which detects dehydrogenase activity in viable cells. […] The absorbance (OD, optical density) was measured on a microplate reader at 570 nm. The absorbance is directly proportional to the cell viability. The percentage of growth (PG) of the cell lines was calculated according to one of the following two equations (according to the National Cancer Institute protocols, www.dtp.nci.nih.gov): If (mean ODtest−mean ODtzero)≧0 then PG=100×(mean ODtest−mean ODtzero)/(mean ODctrl−mean ODtzero). […]

| SMILES | IC50 (H 460 (lung carcinoma)) | IC50 (SW 620 (colon carcinoma)) | IC50 (MCF-7 (breast carcinoma)) | IC50 [1] | IC50 [2] | IC50 [3] | IC50 [4] | antiproliferative activity [5] |
| --- | --- | --- | --- | --- | --- | --- | --- | --- |
| C1COCCOCCN(CCC23CC4CC(CC(C4)C2)C3)CCOCCOCCO1 [Compound 1, N-[2-(1-adamantyl)ethyl]-aza-18-crown-6] | 15 ± 0.6 µM | 9 ± 6 µM | 8 ± 4 µM | 12 ± 0.6 µM | 16 ± 0.5 µM |  |  |  |
| C(CN1CCOCCOCCOCCOCCOCC1)CC12CC3CC(CC(C3)C1)C2 [Compound 2, N-[3-(1-adamantyl)propyl]-aza-18-crown-6] | 15 ± 0.1 µM | 9 ± 3 µM | 6 ± 5 µM | 11 ± 2 µM | 14 ± 3 µM |  |  |  |
| O=C(CC12CC3CC(CC(C3)C1)C2)N1CCOCCOCCOCCOCCOCC1 [Compound 3, N-[1-oxo-2-(1-adamantyl)ethyl]-aza-18-crown-6] | > 100 µM | > 100 µM | > 100 µM | > 100 µM | > 100 µM |  |  |  |
| O=C(CCC12CC3CC(CC(C3)C1)C2)N1CCOCCOCCOCCOCCOCC1 [Compound 4, N-[1-oxo-3-(1-adamantyl)propyl]-aza-18-crown-6] | 72 ± 7 µM | 13 ± 2 µM | 17 ± 5 µM | 30 ± 3.4 µM | 28 ± 7 µM |  |  |  |
| C1COCCOCCNCCOCCOCCN1 [Diaza-18-crown-6, diaza-18-crown-6, reference compound] | > 100 µM | > 100 µM | > 100 µM | > 100 µM | > 100 µM | > 100 µM | > 100 µM | did not show any antiproliferative activity |

Now those with a lower IC50 (H 460 (lung carcinoma)), led by results:

| IC50 (H 460 (lung carcinoma)) | IC50 (SW 620 (colon carcinoma)) | IC50 (MCF-7 (breast carcinoma)) | IC50 [1] | IC50 [2] | IC50 [3] | IC50 [4] | SMILES | antiproliferative activity [5] |
| --- | --- | --- | --- | --- | --- | --- | --- | --- |
| 14 ± 1 µM | 12 ± 5 µM | 5 ± 2 µM |  |  | 6 µM | 6 ± 6 µM | O=C(CC12CC3CC(CC(C3)C1)C2)N1CCOCCOCCN(C(=O)CC23CC4CC(CC(C4)C2)C3)CCOCCOCC1 [Compound 7, N,N′-Bis[1-oxo-2-(1-adamantyl)ethyl]-4,13-diaza-18-crown-6] |  |
| 11 ± 5 µM | 19 ± 16 µM | 2 ± 0.4 µM |  |  | 6 ± 4 µM | 3 ± 0.5 µM | O=C(CCC12CC3CC(CC(C3)C1)C2)N1CCOCCOCCN(C(=O)CCC23CC4CC(CC(C4)C2)C3)CCOCCOCC1 [Compound 8, N,N′-Bis[1-oxo-3-(1-adamantyl)propyl]-4,13-diaza-18-crown-6] |  |
| 4 ± 3 µM | 2.6 ± 1.9 µM | 4 ± 0.7 µM | 1.7 ± 0.6 µM | 2.3 ± 1.4 µM |  |  | C1COCCN(CCC23CC4CC(CC(C4)C2)C3)CCOCCOCCN(CCC23CC4CC(CC(C4)C2)C3)CCO1 [Compound 5, N,N′-Bis[2-(1-adamantyl)ethyl]-4,13-diaza-18-crown-6] |  |
| 0.2 ± 0.3 µM | 1 ± 0.4 µM | 1 ± 0.4 µM |  |  | 0.4 ± 0.4 µM | 1 ± 1 µM | C(CN1CCOCCOCCN(CCCC23CC4CC(CC(C4)C2)C3)CCOCCOCC1)CC12CC3CC(CC(C3)C1)C2 [Compound 6, N,N″-Bis[3-(1-adamantyl)propyl]-4,13-diaza-18-crown-6] |  |
